From PMC5602572, “New carboxamide derivatives bearing benzenesulphonamide as a selective COX-II inhibitor: Design, synthesis and structure-activity relationship” (PLoS ONE, 2017)
Where two headings read alike, the source gives them in different places.

Columns and labels:
[1] = test system: carrageenan induced rat paw edema; experiment: carrageenan-induced rat paw edema bioassay; format: in vivo; settings: % inhibition of carrageenan induced rat paw edema, intraperitoneal; for Anti-inflammatory activity, 0.5 h (%): 0.5 h after treatment; for Anti-inflammatory activity, 1 h (%): 1 h after treatment; for Anti-inflammatory activity, 2 h (%): 2 h after treatment; for Anti-inflammatory activity, 3 h (%): 3 h after treatment
Method: Male albino rats weighing 300 g where purchased from the Department of Zoology and Environmental Biology, University of Nigeria, Nsukka and kept at room temperature in a light controlled animal house. They were fasted with free access to water at least 12 h prior to the experiments. […] The positive control received celecoxib while the negative control received only the vehicle. Edema was produced by injecting 0.2 mL of a solution of 1% carrageenan in the hind paw. The rats were injected intraperitoneally with 1 mL suspension in 0.5% methylcellulose of the tested compounds and reference drug. Paw volume was measured by water displacement with a plethysmometer (UGO BASILE) before, 30 min, 1 h, 2 h and 3 h after treatment. The percentage was calculated by the following equation [25].
Anti-inflammatory activity (%) = (1-D/C)[…], where D represents the difference in paw volume before and after drug administration to the rats and C represents the difference of volume in the control groups. The approval for the use of animal was obtained from the University of Nigeria committee on experimental animal use. No sign of death was observed during the experiment.

[2] = Determination of LD50 in mice; settings: mouse, in vivo, ip; male mice, intraperitoneal, observation 72 h
Method: Male mice were divided into various groups and test compounds were administered in various doses intraperitoneally. […] All behavioral changes and deaths during the observation periods were recorded. The percentage of death at each dose level was then calculated, converted to probits and the LD50 (μM/kg) values were calculated. To observe the health status of the mice, they were monitored 4 times a day. […] For the purpose of ameliorating the suffering of the dying mice, CO2 euthanasia was applied. All the dead mice were disposed in bio-safety containers in accordance with local standard protocols. The mortality rate in each group was calculated according to the formula: Mortality rate(%)=(the number of dead mice/the number of mice in the group)×100.

[3] = molecular target: T1, COX-1 (Ovis aries, UniProt P05979); experiment: In vitro cyclooxygenase inhibitory assay (Cayman colorimetric COX (ovine) inhibitor screening kit), COX-1; format: biochemical; settings: read-out: COX-1 (%) inhibition
T1 construct: purchased Cayman chemicals, USA
T1 sequence (P05979 25-600): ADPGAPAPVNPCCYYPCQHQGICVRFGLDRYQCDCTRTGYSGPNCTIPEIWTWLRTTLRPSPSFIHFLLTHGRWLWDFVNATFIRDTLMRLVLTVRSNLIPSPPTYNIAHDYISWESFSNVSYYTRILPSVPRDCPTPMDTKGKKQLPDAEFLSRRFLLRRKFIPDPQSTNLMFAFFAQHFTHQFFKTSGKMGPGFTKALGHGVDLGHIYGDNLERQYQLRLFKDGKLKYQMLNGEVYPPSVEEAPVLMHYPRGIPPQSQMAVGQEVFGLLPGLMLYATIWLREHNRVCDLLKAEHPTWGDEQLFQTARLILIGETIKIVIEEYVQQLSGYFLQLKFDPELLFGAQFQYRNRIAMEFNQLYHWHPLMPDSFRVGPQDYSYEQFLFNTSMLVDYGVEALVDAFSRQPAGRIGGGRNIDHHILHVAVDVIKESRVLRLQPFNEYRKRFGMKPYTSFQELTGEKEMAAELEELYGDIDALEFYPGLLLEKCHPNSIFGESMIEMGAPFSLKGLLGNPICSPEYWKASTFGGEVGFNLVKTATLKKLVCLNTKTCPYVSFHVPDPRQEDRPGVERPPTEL
Method: (§1) The calculations were performed as per the kit guidelines.

[4] = molecular target: T2, COX-2 (Ovis aries, UniProt P79208); experiment: In vitro cyclooxygenase inhibitory assay (Cayman colorimetric COX (ovine) inhibitor screening kit), COX-2; format: biochemical; settings: for inhibition at 2 µM: read-out: COX-2 (%) inhibition; for S I (selectivity COX-2/COX-1): ratio of % inhibition COX-2/COX-1 at 2.0 μM
T2 construct: purchased Cayman chemicals, USA
T2 sequence (P79208 17-603): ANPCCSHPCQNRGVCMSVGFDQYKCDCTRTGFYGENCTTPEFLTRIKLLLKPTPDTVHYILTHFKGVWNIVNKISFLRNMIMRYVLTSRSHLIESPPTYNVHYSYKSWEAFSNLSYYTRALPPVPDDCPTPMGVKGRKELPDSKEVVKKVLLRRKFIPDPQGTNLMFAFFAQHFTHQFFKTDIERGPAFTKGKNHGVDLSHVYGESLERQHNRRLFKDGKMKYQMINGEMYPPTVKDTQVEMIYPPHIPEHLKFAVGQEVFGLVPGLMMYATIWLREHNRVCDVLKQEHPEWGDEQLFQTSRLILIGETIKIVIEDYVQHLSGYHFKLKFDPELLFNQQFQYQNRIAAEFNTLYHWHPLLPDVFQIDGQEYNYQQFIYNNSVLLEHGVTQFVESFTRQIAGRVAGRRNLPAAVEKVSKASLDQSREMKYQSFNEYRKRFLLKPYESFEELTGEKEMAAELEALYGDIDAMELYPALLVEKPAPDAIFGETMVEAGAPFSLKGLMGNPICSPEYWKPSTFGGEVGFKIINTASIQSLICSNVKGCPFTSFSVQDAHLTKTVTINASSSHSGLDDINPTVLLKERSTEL
Method: as §1

Row | SMILES | Anti-inflammatory activity, 0.5 h (%) [1] [%] | Anti-inflammatory activity, 1 h (%) [1] [%] | Anti-inflammatory activity, 2 h (%) [1] [%] | Anti-inflammatory activity, 3 h (%) [1] [%] | LD50 at 72 h [2] [µmol/kg] | inhibition at 2 µM ([3]; concentration of 2.0 μM) [%] | inhibition at 2 µM ([4]; concentration of 2.0 μM) [%] | S I (selectivity COX-2/COX-1) [4] | inhibition at 2 µM [3] [%] | inhibition at 2 µM [4] [%]
1 | Cc1ccc(-c2cc(C(F)(F)F)nn2-c2ccc(S(N)(=O)=O)cc2)cc1 [Celecoxib, celecoxib, reference compound] | 56.92 | 63.53 | 64.84 | 82.60 | 9.8 |  |  |  |  | 
2 | Cc1ccnc(NC(=O)CN(C(=O)c2ccccc2)S(=O)(=O)c2ccc([N+](=O)[O-])cc2)c1 [Compound 7a, N-(4-methylpyridin-2-yl)-2-[N-(4-nitrobenzenesulfonyl)-1-phenylformamido]acetamide] | 24.62 | 18.82 | 14.24 | 11.85 | 12.9 | 14 | 49 | 3.5 |  | 
3 | Cc1ccnc(NC(=O)[C@H](Cc2ccccc2)N(C(=O)c2ccccc2)S(=O)(=O)c2ccc([N+](=O)[O-])cc2)c1 [Compound 7b, (2S)-N-(4-methylpyridin-2-yl)-2-[N-(4-nitrobenzenesulfonyl)-1-phenylformamido]-3-phenyl propanamide] | 32.31 | 17.06 | 17.03 | 12.96 | 14.2 | 8 | 52 | 6.5 |  | 
4 | Cc1ccnc(NC(=O)[C@H](Cc2cc3ccccc3[nH]2)N(C(=O)c2ccccc2)S(=O)(=O)c2ccc([N+](=O)[O-])cc2)c1 [Compound 7c, (2S)-3-(1H-indol-2-yl)-N-(4-methylpyridin-2-yl)-2-[N-(4-nitrobenzenesulfonyl)-1-phenylformamido]propanamide] | 49.23 | 62.35 | 75.75 | 88.89 | 8.3 |  |  |  | 2 | 70
5 | Cc1ccnc(NC(=O)[C@H](CC(C)C)N(C(=O)c2ccccc2)S(=O)(=O)c2ccc([N+](=O)[O-])cc2)c1 [Compound 7d, (2S)-4-Methyl-N-(4-methylpyridin-2-yl)-2-[N-(4-nitrobenzenesulfonyl)-1-phenylformamido]pentanamide] | 52.31 | 17.65 | 10.54 | 10.15 | 12.6 | 10 | 20 | 2.00 |  | 
6 | CCC(C)[C@@H](C(=O)Nc1cc(C)ccn1)N(C(=O)c1ccccc1)S(=O)(=O)c1ccc([N+](=O)[O-])cc1 (stereo partly drawn) [Compound 7e, (2S)-3-Methyl-N-(4-methylpyridin-2-yl)-2-[N-(4-nitrobenzenesulfonyl)-1-phenylformamido]pentanamide] | 26.15 | 25.88 | 19.38 | 16.05 | 13.1 | 4 | 17 | 4.25 |  | 
7 | Cc1ccnc(NC(=O)[C@H](C(C)C)N(C(=O)c2ccccc2)S(=O)(=O)c2ccc([N+](=O)[O-])cc2)c1 [Compound 7f, (2S)-3-Methyl-N-(4-methylpyridin-2-yl)-2-[N-(4-nitrobenzenesulfonyl)-1-phenylformamido]butanamide] | 24.62 | 17.65 | 14.84 | 1.85 | 15.8 | 15 | 54 | 3.6 |  | 
8 | Cc1ccnc(NC(=O)[C@@H]2CC(O)CN2S(=O)(=O)c2ccc([N+](=O)[O-])cc2)c1 (stereo partly drawn) [Compound 7g, (2S)-4-Hydroxy-N-(4-methylpyridin-2-yl)-1-(4-nitrobenzenesulfonyl)pyrrolidine-2-carboxamide] | 46.92 | 53.53 | 58.84 |  | 9.9 |  |  |  | 18 | 20
9 | Cc1ccnc(NC(=O)[C@@H]2CCCN2S(=O)(=O)c2ccc([N+](=O)[O-])cc2)c1 [Compound 7h, (2S)-N-(4-methylpyridin-2-yl)-1-(4-nitrobenzenesulfonyl)pyrrolidine-2-carboxamide] | 27.69 | 17.06 | 16.59 | 16.05 | 10.7 |  |  |  | 30 | 13
10 | Cc1ccc(S(=O)(=O)N(CC(=O)Nc2cc(C)ccn2)C(=O)c2ccccc2)cc1 [Compound 7i, 2-[N-(4-methylbenzenesulfonyl)-1-phenylformamido]-N-(4-methylpyridin-2-yl)acetamide] | 24.62 | 23.53 | 16.78 | 12.47 | 18.2 | 3 | 18 | 6.00 |  | 
11 | Cc1ccc(S(=O)(=O)N(C(=O)c2ccccc2)[C@@H](Cc2ccccc2)C(=O)Nc2cc(C)ccn2)cc1 [Compound 7j, (2S)-2-[N-(4-methylbenzenesulfonyl)-1-phenylformamido]-N-(4-methylpyridin-2-yl)-3-phenyl propanamide] | 41.54 | 40.59 | 39.84 | 36.42 | 17.6 | 10 | 30 | 3.00 |  | 
12 | Cc1ccc(S(=O)(=O)N(C(=O)c2ccccc2)[C@@H](Cc2cc3ccccc3[nH]2)C(=O)Nc2cc(C)ccn2)cc1 [Compound 7k, (2S)-3-(1H-indol-2-yl)-2-[N-(4-methylbenzenesulfonyl)-1-phenylformamido]-N-(4-methylpyridin-2-yl)propanamide] | 42.12 | 56.12 | 70.89 |  | 9.2 | 3 | 56 | 18.67 |  | 
